Assay [1] is filed under the species Mus musculus. Description: Inhibition of Kv potassium channel in mouse N2A assessed as blockade of channel pore at 30 uM in presence of 70 mM intracellular potassium ion. The format is cell-based.
Assay [2] relates to N2a. Description: Inactivation of Kv channel in +30 mV-stimulated mouse N2A cells assessed as decay time constant of inactivated K+ current at 30 uM via bath application measured after 3 mins (Rvb=1567 +/- 104 ms). It is filed as cell-based.
In assay [3] the test system is N2a. The experiment in a line: Inhibition of Kv potassium channel in +10 to +70 mV-stimulated mouse N2A cells at 30 uM. The format is cell-based.
The test system of assay [4] is N2a. Description: Inactivation of open state of Kv channel in depolarized mouse N2A cells assessed as change in +30 mV-stimulated peak current at 30 uM treated 4 mins before voltage stimulation relative to control. It is filed as cell-based.
Assay [5] is filed under the species Mus musculus. Description: Inhibition of Kv potassium channel in mouse N2A assessed as blockade of channel pore at 10 uM in presence of 140 mM intracellular potassium ion. It is filed as cell-based.
Assay [6] concerns N2a. Description: Inactivation of open state of Kv channels in depolarized mouse N2A cells assessed as reduction of +30 mV-stimulated peak current magnitude at 30 uM treated 4 mins before voltage stimulation followed by restimulation with +30 mV pulse every 20 seconds measured after 6 mins relative to control. It is filed as cell-based. Details: scale not given: the % may be the effect or the level left.

Assay [7] has as its system N2a. Description: Steady state inactivation of Kv potassium channel in 10 sec long prepulse-activated mouse N2A cells followed by further +70 mV pulse stimulation assessed as change in slope factor potential at 30 uM (Rvb=6.4 +/- 1.1 no_unit). It is filed as cell-based.
The subject of assay [8] is N2a. The experiment in a line: Inactivation of Kv channel in +30 mV-stimulated mouse N2A cells assessed as decay time constant of inactivated K+ current at 30 uM applied extracellularly (Rvb=1970 +/- 101 ms). It is filed as cell-based.
Assay [9] deals with Potassium voltage-gated channel subfamily A member 2 (Homo sapiens) (UniProt P16389). Description: Inhibition of Kv1.2 channel expressed in -70 mV-activated HEK293 cells followed by further 10 mV pulse stimulation assessed as slope factor (RVb= 16.3 +/- 1.8 no_unit). It is filed as cell-based.
Assay [10] deals with N2a. The experiment in a line: Inactivation of Kv channel in +30 mV-activated mouse N2A cells followed by further +30 mV pulse stimulation assessed as peak K+ current recovery at 30 uM. The format is cell-based.
The test system of assay [11] is N2a. Description: Inactivation of Kv channel in +30 mV-stimulated mouse N2A cells assessed as […] at 30 uM applied extracellularly measured after compound washout (Rvb=1970 +/- 101 ms). It is filed as cell-based.
In assay [12] the test system is N2a. Description: Steady state inactivation of Kv potassium channel in -70 mV-activated mouse N2A cells followed by further 10 mV pulse stimulation assessed as activation slope factor at 30 uM applied intracellularly. It is filed as cell-based.
The subject of assay [13] is N2a. The experiment in a line: Inactivation of Kv channel in +30 mV-stimulated mouse N2A cells assessed as decay time constant of inactivated K+ current at 30 uM applied extracellularly measured after compound washout (Rvb=1970 +/- 101 ms). The format is cell-based.
The test system of assay [14] is N2a. Description: Steady state inactivation of Kv potassium channel in -70 mV-activated mouse N2A cells followed by further 10 mV pulse stimulation assessed as reduction in half maximal activation potential at 30 uM (RVb= 10.8 +/- 2.4 mV). It is filed as cell-based.
Assay [15] relates to N2a. The experiment in a line: Inactivation of open state of Kv channel in +30 mV-stimulated mouse N2A cells assessed as peak K+ current recovery at 30 uM treated 4 mins before voltage stimulation followed by restimulation with +30 mV pulse every 20 seconds measured after compound washout. It is filed as cell-based.
Assay [16] is described as follows: Inhibition of Kv channel in depolarized mouse N2A cells assessed as inhibition of +30 mV-triggered steady state potassium current flow.
The subject of assay [17] is N2a. The experiment in a line: Inhibition of Kv potassium channel in +10 to +70 mV-stimulated mouse N2A cells at 10 uM. The format is cell-based.
The subject of assay [18] is N2a. The experiment in a line: Steady state inactivation of Kv potassium channel in -70 mV-activated mouse N2A cells followed by further 10 mV pulse stimulation assessed as reduction in half maximal activation potential at 30 uM applied intracellularly (RVb= 10.8 +/- 2.4 mV). It is filed as cell-based.
Assay [19] has as its system N2a. The experiment in a line: Inhibition of Kv potassium channel-induced current in mouse N2A cells assessed as left shift of activation curve. It is filed as cell-based.
For assay [20], the system named is N2a. The experiment in a line: Steady state inactivation of Kv potassium channel in -70 mV-activated mouse N2A cells followed by further 10 mV pulse stimulation assessed as change in slope factor potential at 30 uM (RVb= 16.1 +/- 1.1 no_unit). The format is cell-based.
Assay [21] relates to N2a. The experiment in a line: Steady state inactivation of Kv potassium channel in 10 second long prepulse-activated mouse N2A cells followed by further +70 mV pulse stimulation assessed as reduction in half maximal activation potential at 30 uM (RVb=20.9 +/- 2.1 mV). The format is cell-based.

Active and inactive are the calls of the source. No cut-off for these calls is given here.

Sequence of Potassium voltage-gated channel subfamily A member 2 (Homo sapiens) (P16389 whole entry): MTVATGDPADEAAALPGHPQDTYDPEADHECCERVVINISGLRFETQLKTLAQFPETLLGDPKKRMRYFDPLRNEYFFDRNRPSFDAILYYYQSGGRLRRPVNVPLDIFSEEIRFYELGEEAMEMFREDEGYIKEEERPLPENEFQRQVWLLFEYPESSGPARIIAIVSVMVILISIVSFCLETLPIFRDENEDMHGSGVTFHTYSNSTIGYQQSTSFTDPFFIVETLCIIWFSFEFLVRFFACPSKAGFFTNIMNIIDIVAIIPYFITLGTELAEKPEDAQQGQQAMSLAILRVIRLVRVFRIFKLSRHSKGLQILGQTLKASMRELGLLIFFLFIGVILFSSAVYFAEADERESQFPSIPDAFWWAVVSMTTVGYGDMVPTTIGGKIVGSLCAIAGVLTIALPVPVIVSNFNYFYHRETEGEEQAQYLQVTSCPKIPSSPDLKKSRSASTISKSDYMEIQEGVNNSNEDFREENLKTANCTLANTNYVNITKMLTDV

On to `CC[C@H]1CN2CC[C@]3(C(=O)Nc4ccccc43)[C@@H]2C[C@@H]1/C(=C\OC)C(=O)OC` [RHYNCHOPHYLLINE], for which the outcome in the assay filed under Mus musculus [1], in the assay listed under Mus musculus [5] and in the assay on N2a [10] was inactive. Besides, the Activity came out at 35 ms in the assay on N2a [2]; 115% with N2a [4]; 72.5% in the assay on N2a [6]; 3.7 in the assay with N2a [7]; 60.8 ms with N2a [8]; 19.4 in [9]. Also, the Activity in the assay on N2a [11] was 93.3 ms; in the assay with N2a [12] it was 11.8; in the assay on N2a [13], 1900 ms; in the assay on N2a [14], -6.5 mV; in the assay on N2a [15], 98%; with N2a [18] it was 7.7 mV. The figures for the Activity with N2a [20] and in the assay with N2a [21] were 23.2 and -34.6 mV, respectively. The outcome with N2a [3], with N2a [17] and in the assay with N2a [19] was Active. Further, the IC50 in [16] is 7.9 µM.

By IC50 is commonly meant the concentration at which inhibition is half-maximal.

The record behind these values is ChEMBL document CHEMBL1152333 (J Nat Prod, 2009).
